The source of these data is ChEMBL document CHEMBL1201862, “PubChem BioAssay data set” (2004).

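Protocol summary: plate cells (96-well), add compound at 5 concentrations, incubate 48 h, interpolate endpoints linearly. At the GI50, growth is halved.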 Activity calls are given as the source filed them. Cut-off read from the data, not from the text of the source: active = GI50 up to about 1.1 µM and inactive = higher.

Some test systems named below: Malme-3M; HOP-62; LOX IMVI; ACHN; A549; UACC-257; NCI-H23; HOP-92; M19-MEL; HL-60; MDA-MB-435; SNB-75; RPMI-8226; MDA-MB-231; U-251; IGROV-1; SK-MEL-28; OVCAR-5; KM12; MDA-N.
Holding throughout (assay): NCI tumour cell line growth inhibition, 48 h

In the case of `COc1cc(/C=C/c2ccc(/C=C/c3cc(OC)c(OC)c(OC)c3)cc2)cc(OC)c1OC`, the GI50 was 20.3 µM (inactive) in the assay on Malme-3M; 16.6 µM (inactive) in the assay on HOP-62; 34.4 µM (inactive) in the assay with LOX IMVI; 16.3 µM (inactive) with ACHN; 40.9 µM (inactive) with A549; 58.7 µM (inactive) in the assay with UACC-257. Moreover, the GI50 with NCI-H23 is 12.3 µM (inactive); with HOP-92, 15.4 µM (inactive); in the assay with M19-MEL it was 32.9 µM (inactive); in the assay on HL-60, > 66.5 µM (inactive); with MDA-MB-435 it was 55.2 µM (inactive); in the assay with SNB-75, 6.34 µM (inactive). Moreover, the GI50 in the assay on RPMI-8226 was 41.6 µM (inactive); in the assay on MDA-MB-231, 19.9 µM (inactive); with U-251 it was 13.3 µM (inactive); with IGROV-1 it was 26.5 µM (inactive); in the assay with SK-MEL-28 it was 26.1 µM (inactive); in the assay on OVCAR-5 it was 60.5 µM (inactive). Further, the GI50 in the assay on KM12 is 29.5 µM (inactive).
Take `CC(O)CCC(=O)c1ccoc1` (centres undefined): the GI50 in the assay on Malme-3M is 6820 µM (inactive); with HOP-62 it was 6930 µM (inactive); in the assay on LOX IMVI, 6030 µM (inactive); in the assay on ACHN, 5640 µM (inactive); in the assay with A549, 3940 µM (inactive); in the assay with UACC-257, 5130 µM (inactive). For the same compound, the GI50 with NCI-H23 is 8110 µM (inactive); in the assay on HOP-92, 2490 µM (inactive); in the assay on M19-MEL, 5480 µM (inactive); with HL-60 it was 3350 µM (inactive); in the assay with MDA-MB-435 it was > 10000 µM (inactive); with SNB-75, 3500 µM (inactive). Also, the GI50 was 3740 µM (inactive) in the assay with RPMI-8226; > 7830 µM (inactive) in the assay on MDA-MB-231; 6780 µM (inactive) with U-251; 7290 µM (inactive) with IGROV-1; 6930 µM (inactive) in the assay with SK-MEL-28; 7820 µM (inactive) with OVCAR-5. Also, the GI50 in the assay on KM12 is 7710 µM (inactive).
In the case of `CC(C)(Br)C(Br)CC/C(=C/CBr)CBr.CC(C)(Br)C(Br)CC/C(=C\CBr)CBr` (centres undefined), the GI50 is 3.85 µM (inactive) in the assay with Malme-3M; 2.89 µM (inactive) in the assay on HOP-62; 0.13 µM (active) in the assay with LOX IMVI; 5.83 µM (inactive) in the assay with ACHN; 13.9 µM (inactive) in the assay with A549; 6 µM (inactive) with UACC-257. Moreover, the GI50 with NCI-H23 is 3.41 µM (inactive); with HOP-92, 4.33 µM (inactive); in the assay with M19-MEL, 2 µM (inactive); with MDA-N, 2.16 µM (inactive); in the assay on HL-60, 0.553 µM (active); with MDA-MB-435 it was 3.69 µM (inactive). The GI50 is 3.98 µM (inactive) in the assay with SNB-75; 1.47 µM (inactive) with RPMI-8226; 12 µM (inactive) with MDA-MB-231; 3.05 µM (inactive) in the assay with U-251; 3.08 µM (inactive) in the assay on IGROV-1; 2.27 µM (inactive) in the assay with SK-MEL-28. Also, the GI50 with OVCAR-5 is 18.6 µM (inactive); in the assay with KM12, 4.16 µM (inactive).
On to `CCC1=C(C)/C(=C/c2[nH]c(C(Br)Br)c(CC)c2C)N=C1C(Br)Br`, for which the GI50 is 35 µM (inactive) with Malme-3M; 28.6 µM (inactive) with HOP-62; 21.2 µM (inactive) in the assay with LOX IMVI; 14.6 µM (inactive) in the assay on ACHN; 25.2 µM (inactive) in the assay with A549; 19.9 µM (inactive) with UACC-257. The GI50 in the assay on NCI-H23 was 32.4 µM (inactive); in the assay on HOP-92, 74.1 µM (inactive); in the assay with M19-MEL it was 20.9 µM (inactive); in the assay on HL-60 it was 16.9 µM (inactive); in the assay on SNB-75, 21.6 µM (inactive); with RPMI-8226 it was 9.68 µM (inactive). For the same compound, the GI50 in the assay with U-251 is 22.5 µM (inactive); in the assay with IGROV-1, 23.9 µM (inactive); with SK-MEL-28, 45.4 µM (inactive); in the assay with OVCAR-5, > 100 µM (inactive); in the assay with KM12, 19.1 µM (inactive).
Regarding `COC1=CC(=O)C2C(C1=O)[C@@H]1c3ccccc3C[C@H]21` (some centres undefined), the GI50 with Malme-3M, in the assay with HOP-62, with LOX IMVI, in the assay with ACHN, in the assay on A549 and in the assay with UACC-257 was > 100 µM (inactive) throughout. In addition, the GI50 was > 100 µM (inactive) with NCI-H23; > 100 µM (inactive) in the assay with HOP-92; > 100 µM (inactive) in the assay with M19-MEL; > 100 µM (inactive) with HL-60; 89.9 µM (inactive) in the assay on SNB-75; > 100 µM (inactive) in the assay with RPMI-8226. For the same compound, the GI50 with U-251, with IGROV-1, in the assay with SK-MEL-28, with OVCAR-5 and in the assay on KM12 was > 100 µM (inactive) in each case.
Turning to `CN(C)C(=S)/N=c1\ssc(=S)n1Cc1cccnc1`, the GI50 in the assay on Malme-3M is 2.16 µM (inactive); with HOP-62, 4.91 µM (inactive); with LOX IMVI it was 4.27 µM (inactive); in the assay on ACHN it was 6.76 µM (inactive); in the assay with A549, 4.93 µM (inactive); in the assay with UACC-257, 4.23 µM (inactive). Besides, the GI50 in the assay on NCI-H23 was 2.64 µM (inactive); in the assay on HOP-92 it was 3.81 µM (inactive); in the assay with M19-MEL, 1.51 µM (inactive); in the assay with MDA-N, 0.324 µM (active); with HL-60, 1.76 µM (inactive); in the assay on MDA-MB-435, 0.277 µM (active). The GI50 is 1.91 µM (inactive) in the assay with SNB-75; 3.47 µM (inactive) with RPMI-8226; 6.07 µM (inactive) in the assay with MDA-MB-231; 3.38 µM (inactive) in the assay on U-251; 7.18 µM (inactive) with IGROV-1; 9.4 µM (inactive) in the assay with SK-MEL-28. Besides, the figures for the GI50 in the assay on OVCAR-5 and in the assay with KM12 were 35.9 µM (inactive) and 1 µM (active), respectively.
Turning to `CCc1nnc(S)n1/N=C/c1ccc(-c2ccc([N+](=O)[O-])cc2)o1`, the GI50 in the assay with Malme-3M, in the assay with HOP-62, in the assay with LOX IMVI, with ACHN, with A549 and in the assay with UACC-257 was > 100 µM (inactive) each time. Also, the GI50 in the assay on NCI-H23, with HOP-92, in the assay on M19-MEL, in the assay on HL-60, with SNB-75 and in the assay with RPMI-8226 was > 100 µM (inactive) each time. The GI50 with U-251, with IGROV-1, with SK-MEL-28, with OVCAR-5 and with KM12 was > 100 µM (inactive) each time.
In the case of `Cn1cnc([N+](=O)[O-])c1Sc1nc(N)nc2c1ncn2C1OC(CO)C(O)C1O` (centres undefined), the GI50 in the assay with Malme-3M was 17.8 µM (inactive); with HOP-62 it was 1.44 µM (inactive); with LOX IMVI it was 1.09 µM (active); with ACHN, 9.04 µM (inactive); with A549 it was 11 µM (inactive); in the assay with UACC-257, 15.2 µM (inactive). Further, the GI50 is 4.16 µM (inactive) in the assay with NCI-H23; 1.33 µM (inactive) with HOP-92; 35.2 µM (inactive) in the assay with M19-MEL; 2.73 µM (inactive) in the assay on MDA-N; 9.44 µM (inactive) in the assay on HL-60; 1.5 µM (inactive) with MDA-MB-435. Besides, the GI50 in the assay on SNB-75 is 6.44 µM (inactive); in the assay on RPMI-8226, 2.98 µM (inactive); with MDA-MB-231 it was 0.783 µM (active); in the assay on U-251, 21.7 µM (inactive); in the assay on IGROV-1 it was 12.7 µM (inactive); with SK-MEL-28 it was 28 µM (inactive). For the same compound, the results for the GI50 in the assay with OVCAR-5 and with KM12 were 1.88 µM (inactive) and 5.51 µM (inactive), respectively.
